# Tested on: APCs in the draining LNs
# Test: Subcutaneous LPS stimulation: activation markers CD40 and CD86 on APCs in draining LNs
# Format: in vivo, mouse
# Settings: s.c. treatment, LPS challenge on Day 6
# Protocol: In order to assess the ability of lymph node targeted Neg-ButM in suppressing the activation of APCs, the investors tested on a mouse model of subcutaneous lipopolysaccharide (LPS) stimulation and evaluated on the activation marker including CD40 and CD86 on the major APCs in the draining LNs. Mice were injected with either PBS, sodium butyrate (NaBut), NtL-ButM, or Neg-ButM subcutaneously at the abdomen site. On Day 6, Mice were challenged with LPS on the same injection site, and sacrificed the next day for the cellular analysis.
smiles,measurement,value
CCCC(=O)[O-].[Na+] [sodium butyrate],suppression of APC activation,"neither the NtL-ButM, nor sodium butyrate showed any significant suppression on the APC activations"

# Reference: patent publication US20230201118A1, “PRODRUG COPOLYMERS AND POLYMERIC MICELLES THEREOF FOR THE DELIVERY OF SHORT-CHAIN FATTY ACIDS, THE PROMOTION OF GUT HEALTH, AND THE TREATMENT OF IMMUNE AND/OR INFLAMMATORY CONDITIONS AND FOOD ALLERGY” (The University of Chicago, priority 2021, published 2023)
